Test results published in US5763443A, “MDR resistance treatment and novel pharmaceutically active riminophenazines” (priority 1994, dated 1998).
Converted amounts (≈) assume the structure as drawn. Where two headings read alike, the source gives them in different places.

Tests used:
[1] = test system: multi-drug resistant (MDR) lung carcinoma cell line H69/LX4; test: cells; details: for INCREASED SENSITIVITY H69/Lx4: Table VIII, values equal IC50 NONE / IC50 with VB 25 ng/ml of Table VII, 10080 min
Method: The riminophenazines of the above formula (I), contain an imino group. […] The potency of compounds of the above general formula, as inhibitors of multi-drug resistance, was assessed by sensitization of a P-glycoprotein positive cell line to drugs associated with this form of resistance. A human small cell lung cancer cell line H 69/P as well as a multi-drug resistance (MDR) sub-line H69/LX4 were used. These cell lines were obtained from the Medical Research Council Clinical Oncology and Radiotherapeutics Unit, Hills Road, Cambridge, England. The H69/LX4 line was selected in vitro by progressive exposure to increasing concentrations of doxorubicin in order to increase P-glycoprotein expression.
The cell lines used were human small cell lung cancer cell line HP69/P and a multi-drug resistant (MDR) sub-line H69/LX4, both of which were supplied by the MRC Clinical Oncology and Radiotherapeutics Unit, Hills Road, Cambridge, England. The maintenance of the cell lines and drug response assays was done as described by Twentyman et al in British Journal of Cancer Volume 65 pages 335-340. The H69/LX4 line was originally described by Twentyman et al in British Journal of Cancer Volume 53, pages 529-637 (1986).
The data in parenthesis represents fold sensitivity compared with the chemotherapeutic agent without the MDR inhibitor.
The results obtained, are illustrated graphically in FIGS. 4 to 7 of the accompanying drawings.
(§1) The general procedure set forth above was followed, i.e. 7 days incubation in the4 presence of doxorubicin at 12,5 ng/ml or vinblastine at 25 or 3 ng/ml.
(§2) The effects were examined over a seven (7) day exposure to different concentrations of B4119 and B4125 on the sensitivity of a doxorubicin resistant leukaemia cell line (K562/MMB) and a lung carcinoma cell line (H69/LX4) to doxorubicin (dox) and vinblastine (VB) using the MTT assay.

[2] = test system: MDR leukaemia cell line K562/MMB; test: cells; details: for INCREASED SENSITIVITY K 562/MMB: Table VIII, values equal IC50 NONE / IC50 with VB 3 ng/ml of Table VII, 10080 min; for MDR activity / sensitivity against cell line K562/MMP: compared with known reference compound B4100
Method: A third cell line (562/MMB) used was a MDR leukemia cell line selected in vitro by progressive exposure to increasing concentrations of vinblastine in order to increase P-glycoprotein expression. This cell line was developed in the Department of Immunology, University of Pretoria from K562 (ATCC CCL 243) supplied by Highveld Biological (Pty) Ltd, Sandton.
as §1, §2

[3] = Homo sapiens, 168 h, read-out: IC 50 H69/Lx4 NONE
[4] = Homo sapiens, read-out: IC 50 H69/Lx4 DOX 12 ng/ml
[5] = Homo sapiens, read-out: IC 50 H69/Lx4 VB 25 ng/ml
[6] = Homo sapiens, K562, read-out: IC 50 K562/MMB VB 3 ng/ml, Table VII, with vinblastine 3 ng/ml
[7] = Homo sapiens, K562, 168 h, read-out: IC 50 K562/MMB NONE, Table VII, riminophenazine alone, 7 day
[8] = Homo sapiens, K562, read-out: IC 50 K562/MMB DOX 12 ng/ml, Table VII, with doxorubicin 12 ng/ml

Row | Structure (SMILES) | IC50 [1, 3] | IC50 [1, 4] | IC50 [1, 5] | INCREASED SENSITIVITY H69/Lx4 [1] | INCREASED SENSITIVITY K 562/MMB [2] | MDR activity / sensitivity against cell line K562/MMP [2] | other results
1 | CC(C)c1ccc(Nc2cc3nc4cc(Cl)ccc4n(-c4ccc(C(C)C)cc4)c-3cc2=NC2CC(C)(C)NC(C)(C)C2)cc1 [Compound B4159, N,5-bis(4-isopropylphenyl)-8-chloro-3,5-dihydro-3-[(2',2',6',6'-tetramethyl-4-piperidyl)-imino]-2-phenazinamine] | 1.55 µg/mL (≈ 2.5 µM) | 1.09 µg/mL (≈ 1.76 µM) | 0.268 µg/mL (≈ 0.432 µM) | 5.79 | 7.02 | exceptionally good activity | –
2 | CC1(C)CC(N=c2cc3n(-c4cccc(C(F)(F)F)c4)c4ccc(Cl)cc4nc-3cc2Nc2cccc(C(F)(F)F)c2)CC(C)(C)N1 [Compound B4127, N,5-bis(3-trifluoromethylphenyl)-8-chloro-3,5-dihydro-3-[(2',2',6',6'-tetramethyl-4-piperidyl)-imino]-2-phenazinamine] | 1.32 µg/mL (≈ 1.97 µM) | 1.31 µg/mL (≈ 1.95 µM) | 0.454 µg/mL (≈ 0.675 µM) | 2.91 | 6.07 | – | –
3 | CC[C@]1(O)C[C@@H]2CN(CCc3c([nH]c4ccccc34)[C@@](C(=O)OC)(c3cc4c(cc3OC)N(C)[C@H]3[C@@](O)(C(=O)OC)[C@H](OC(C)=O)[C@]5(CC)C=CCN6CC[C@]43[C@@H]65)C2)C1 [Vinblastine, reference compound] | – | – | – | – | – | – | cytotoxicity at 0.025 µg/mL ([1]; Homo sapiens, 168 h, read-out: cytotoxic activity of chemotherapeutic agent at the concentration used with the riminophenazine): < 10%; cytotoxicity at 0.003 µg/mL ([2]; Homo sapiens, K562, 168 h, read-out: cytotoxic activity of chemotherapeutic agent at the concentration used with the riminophenazine): < 10%
4 | CO[C@@]12[C@H](COC(N)=O)C3=C(C(=O)C(C)=C(N)C3=O)N1C[C@@H]1N[C@@H]12 [Mitomycin C, reference compound] | – | – | – | – | – | – | IC50 ([1]; Homo sapiens, 168 h, read-out: IC50 of chemotherapeutic agent, MDR inhibitor None): 0.1 µg/mL (≈ 0.299 µM)
5 | CC1(C)CC(N=c2cc3n(-c4cccc(Cl)c4)c4ccc(Cl)cc4nc-3cc2Nc2cccc(Cl)c2)CC(C)(C)N1 [Compound B4123, N,5-bis(3-chlorophenyl)-8-chloro-3,5-dihydro-3[(2',2',6',6'-tetramethyl-4-piperidyl)-imino]-2-phenazinamine] | 1.18 µg/mL (≈ 1.94 µM) | 1.02 µg/mL (≈ 1.69 µM) | 0.251 µg/mL (≈ 0.415 µM) | 4.69 | 6.80 | exceptionally good activity | IC50 [2, 6]: 0.049 µg/mL (≈ 0.081 µM)
6 | Cc1ccc(Nc2cc3nc4ccccc4n(-c4ccc(C)cc4)c-3cc2=NC2CC(C)(C)NC(C)(C)C2)cc1 [Compound B4070, N,5-bis(4-methylphenyl)-3,5-dihydro-3-[(2',2',6',6'-tetramethyl-4-piperidyl)imino]-2-phenazinamine] | 0.525 µg/mL (≈ 0.991 µM) | 0.312 µg/mL (≈ 0.589 µM) | 0.2 µg/mL (≈ 0.378 µM) | 2.63 | 2.94 | – | IC50 [2, 7]: 0.159 µg/mL (≈ 0.3 µM); IC50 ([2]; Homo sapiens, K562, 168 h, read-out: IC 50 of riminophenazine, Doxorubicin, Table IV, K562/MMB, with doxorubicin 12 ng/ml, 7 day): 0.193 µg/mL (≈ 0.364 µM); IC50 ([2]; Homo sapiens, K562, 168 h, read-out: IC 50 of riminophenazine, None, Table IV, K562/MMB, riminophenazine alone, 7 day, mean of 2 experiments): 0.159 µg/mL (≈ 0.3 µM); IC50 ([2]; Homo sapiens, K562, 168 h, read-out: IC 50 of riminophenazine, Vinblastine, Table IV, K562/MMB, with vinblastine 3 ng/ml, 7 day): 0.054 µg/mL (≈ 0.102 µM); IC50 [2, 8]: 0.193 µg/mL (≈ 0.364 µM); IC50 [2, 6]: 0.054 µg/mL (≈ 0.102 µM)
7 | CC1(C)CC(N=c2cc3n(-c4cccc(Cl)c4)c4ccccc4nc-3cc2Nc2cccc(Cl)c2)CC(C)(C)N1 [Compound B4112, N,5-bis(3-chlorophenyl)-3,5-dihydro-3-[(2',2',6',6'-tetramethyl-4-piperidyl)-imino]-2-phenazinamine] | 0.62 µg/mL (≈ 1.09 µM) | 0.175 µg/mL (≈ 0.307 µM) | 0.029 µg/mL (≈ 0.0508 µM) | 21.38 | 19.5 | exceptionally good activity | MDR activity against the cell line H69/LX4 [1]: very good activity; IC50 ([1]; Homo sapiens, read-out: IC50, plus VB): 0.029 µg/mL; IC50 ([1]; Homo sapiens, read-out: IC50, plus doxo): 0.62 µg/mL; direct cytotoxic activity [2]: direct cytotoxic activity in this cell line at reasonably low concentrations; IC50 [2, 7]: 0.156 µg/mL (≈ 0.273 µM); IC50 ([2]; Homo sapiens, K562, read-out: IC50, alone, Table V, K562/MMB (first value column, head not given)): 0.156 µg/mL (≈ 0.273 µM); IC50 ([2]; Homo sapiens, K562, read-out: IC50, plus VB, Table V, K562/MMB, vinblastine 3 ng/ml): 0.008 µg/mL; IC50 ([2]; Homo sapiens, K562, read-out: IC50, plus doxo, Table V, K562/MMB, doxorubicin 12 ng/ml): 0.066 µg/mL; IC50 [2, 8]: 0.066 µg/mL (≈ 0.116 µM); IC50 [2, 6]: 0.008 µg/mL (≈ 0.014 µM); lowest concentration at which compound was active ([2]; K562/MMB, Example 6): 3 ng/mL
8 | CC1(C)CC(N=c2cc3n(-c4ccc(Cl)c(C(F)(F)F)c4)c4ccccc4nc-3cc2Nc2ccc(Cl)c(C(F)(F)F)c2)CC(C)(C)N1 [Compound B4163, N,5-bis[(3-trifluoromethyl)-4-chlorophenyl]-3,5-dihydro-3-[(2',2',6',6'-tetramethylpiperidyl)-imino]-2-phenazinamine] | 0.972 µg/mL (≈ 1.38 µM) | 0.846 µg/mL (≈ 1.2 µM) | 0.281 µg/mL (≈ 0.398 µM) | 3.46 | 10.63 | increased substantially and unexpectedly | IC50 [2, 6]: 0.032 µg/mL (≈ 0.0453 µM)
9 | CC1(C)CC(N=c2cc3n(-c4ccccc4)c4ccccc4nc-3cc2Nc2ccccc2)CC(C)(C)N1 [Compound B3962, N,5-bis(phenyl)-3,5-dihydro-3-[(2',2',6',6'-tetramethyl-4-piperidyl)imino]-2-phenazinamine] | 0.563 µg/mL (≈ 1.12 µM) | 0.427 µg/mL (≈ 0.851 µM) | 0.262 µg/mL (≈ 0.522 µM) | 2.15 | 4.07 | – | –
10 | CC1(C)CC(N=c2cc3n(-c4ccc(Cl)c(Cl)c4)c4ccccc4nc-3cc2Nc2ccc(Cl)c(Cl)c2)CC(C)(C)N1 [Compound B4100, reference compound] | 0.798 µg/mL (≈ 1.25 µM) | 0.582 µg/mL (≈ 0.91 µM) | 0.125 µg/mL (≈ 0.195 µM) | 6.38 | 3.53 | – | –
11 | CC1(C)CC(N=c2cc3n(-c4ccccc4)c4ccc(Cl)cc4nc-3cc2Nc2ccccc2)CC(C)(C)N1 [Compound B4019] | 1.03 µg/mL (≈ 1.92 µM) | 0.771 µg/mL (≈ 1.44 µM) | 0.488 µg/mL (≈ 0.91 µM) | 2.11 | – | – | –
12 | CC1(C)CC(N=c2cc3n(-c4ccc(OC(F)(F)F)cc4)c4ccccc4nc-3cc2Nc2ccc(OC(F)(F)F)cc2)CC(C)(C)N1 [Compound B4177, N,5-bis(4-trifluoromethoxyphenyl)-3,5-dihydro-3-[(2',2',6',6'-tetramethyl-4-piperidyl)-imino)-2-phenazinamine] | 0.6 µg/mL (≈ 0.896 µM) | 0.852 µg/mL (≈ 1.27 µM) | 0.056 µg/mL (≈ 0.0836 µM) | 10.71 | – | – | MDR activity against the cell line H69/LX4 [1]: very good activity
13 | CC1(C)CC(N=c2cc3n(-c4ccc(Cl)cc4Cl)c4ccccc4nc-3cc2Nc2ccc(Cl)cc2Cl)CC(C)(C)N1 [Compound B4128, N,5-bis(2,4-dichiorophenyl)-3,5-dihydro-3-[(2',2',6',6'-tetramethyl-4-piperidyl)-imino]-2-phenazinamine] | 1.23 µg/mL (≈ 1.92 µM) | 0.782 µg/mL (≈ 1.22 µM) | 0.434 µg/mL (≈ 0.679 µM) | 2.82 | 6.49 | increased substantially and unexpectedly | –
14 | COc1ccc(Nc2cc3nc4ccccc4n(-c4ccc(OC)cc4)c-3cc2=NC2CC(C)(C)NC(C)(C)C2)cc1 [Compound B4174, N,5-bis(4-methoxyphenyl)-3,5-dihydro-3-[(2',2',6',6'-tetramethyl-4-piperidyl)-imino]-2-phenazinamine] | 0.462 µg/mL (≈ 0.822 µM) | 0.587 µg/mL (≈ 1.04 µM) | 0.535 µg/mL (≈ 0.952 µM) | 0.86 | 1.78 | – | –
15 | CCN(CC)CCCN=c1cc2n(-c3ccc(Cl)c(Cl)c3)c3ccccc3nc-2cc1Nc1ccc(Cl)c(Cl)c1 [Compound B4154] | 1.33 µg/mL (≈ 2.17 µM) | 0.648 µg/mL (≈ 1.06 µM) | 0.378 µg/mL (≈ 0.616 µM) | 3.52 | 2.99 | – | –
16 | CC1(C)CC(N=c2cc3n(-c4ccc(Cl)cc4)c4ccccc4nc-3cc2Nc2ccc(Cl)cc2)CC(C)(C)N1 [Compound B3786] | 0.608 µg/mL (≈ 1.07 µM) | 0.597 µg/mL (≈ 1.05 µM) | 0.169 µg/mL (≈ 0.296 µM) | 3.60 | – | – | –
